Results from patent publication US9562031B1, “Phenethyldihydrobenzodioxolones and methods of use” (Sequoia Sciences, Inc., priority 2015, dated 2017).
One block for each molecule: values may come before it.

What was measured:
[1] = test system: MOLT-4 cells; assay: antiproliferation assay, MOLT-4; assay type: cell-based; settings: Homo sapiens
Description: (§1) For the antiproliferation assay, NCI-H460 (large cell lung carcinoma) or M14 (amelanotic melanoma) cells were grown in RPMI-1640 with 10% FBS supplemented with L-glutamine and HEPES. Cells were seeded into 96-well plates at 5×10^2 to 5×10^4 cells/well and allowed to adhere overnight; the medium was then removed. A stock solution of test compound in DMSO was diluted in medium to generate a series of working solutions. Aliquots (100 μl) of the working solutions were then added to the appropriate test wells to expose cells to the final concentrations of compound in a total volume of 100 μl. Seven different concentrations were tested, with 2-5 wells per concentration. Camptothecin was used as a positive control; wells containing vehicle without compound were used as negative controls. Plates were kept for 72 h in a 37° C., 5% CO2 incubator. After incubation, viable cells were detected with the CELLTITER 96 AQueous Non-Radioactive Cell Proliferation Assay (Promega), and IC50 values were determined using GraphPad Prism 5 software.
(§2) Antiproliferation of several of the active compounds was tested against additional cell lines.

[2] = test system: NCI-H187 cells; assay: antiproliferation assay, NCI-H187; assay type: cell-based; settings: Homo sapiens
Description: as §1, §2

[3] = test system: OVCAR-3 cells; assay: antiproliferation assay, OVCAR-3; assay type: cell-based; settings: Homo sapiens
Description: as §1, §2

[4] = test system: OVCAR-4 cells; assay: antiproliferation assay, OVCAR-4; assay type: cell-based; settings: Homo sapiens
Description: as §1, §2

[5] = test system: UO-31 cells; assay: antiproliferation assay, paclitaxel-resistant UO-31; assay type: cell-based; settings: Homo sapiens
Description: as §1
(§3) Compound 4 was tested for antiproliferation activity against several paclitaxel-resistant human cancer cell lines.

[6] = test system: TK-10 cells; assay: antiproliferation assay, paclitaxel-resistant TK-10; assay type: cell-based; settings: Homo sapiens
Description: as §1, §3

[7] = compound concentrations in mouse plasma after IP injection (LC/MS); assay type: in vivo; settings: mice, IP 40 mg/kg, 3-5 h after injection; vehicle 42.97% propylene glycol, 0.23% TWEEN-20, 31.5% PEG400, 15.3% ethanol, 10% water
Description: The bioavailabilities of certain compounds were examined in mice. Administration of the compounds was performed by intraperitoneal (IP) injection using a vehicle as known to those skilled in the art. To measure compound concentrations in plasma, blood is collected by cardiac puncture at a specified time after […]. It is then centrifuged in a plasma separator tube with NaEDTA/NaF as the anticoagulant, and the resulting plasma is stored at −80° C. For analysis, an internal standard is added to a 200 μL aliquot of plasma, and the aliquot is extracted with ethyl acetate. The ethyl acetate extract is analyzed by LC/MS and quantitated using a standard curve prepared by adding known amounts of test compound and internal standard to 200 μL aliquots of blank mouse plasma.
Many vehicles can be used to examine bioavailability. […]
Plasma concentrations were measured for several additional compounds. Table 12 lists plasma concentrations (as a multiple of the compound's IC50 against NCI-H460 cells) measured for these compounds at different time points after injection, along with the vehicle used.

[8] = test system: A498 cells; assay: NCI-60 panel antiproliferation, A498; assay type: cell-based, human; settings: Homo sapiens, NCI 60-cell panel
Description: (§4) Bifidenone and Compound 37 were tested for antiproliferation activity against the NCI-60 panel of cancer cell lines. COMPARE analysis was then conducted to compare the activity “fingerprint” of bifidenone to those of known classes of compounds (Zhou, B.-N., Hoch, J. M., Johnson, R. K., Mattern, M. R., Eng, W.-K., Ma, J., Hecht, S. M., Newman, D. J., Kingston, D. G. I., 2000. Use of COMPARE Analysis to Discover New Natural Product Drugs: Isolation of Camptothecin and 9-Methoxycamptothecin from a New Source. Journal of Natural Products 63, 1273-1276.).

[9] = test system: BT-549 cells; assay: NCI-60 panel antiproliferation, BT-549; assay type: cell-based, human; settings: Homo sapiens, NCI 60-cell panel
Description: as §4

[10] = test system: EKVX cells; assay: NCI-60 panel antiproliferation, EKVX; assay type: cell-based, human; settings: Homo sapiens, NCI 60-cell panel
Description: as §4

[11] = test system: HOP-62 cells; assay: NCI-60 panel antiproliferation, HOP-62; assay type: cell-based, human; settings: Homo sapiens, NCI 60-cell panel
Description: as §4

[12] = test system: HT29 cells; assay: NCI-60 panel antiproliferation, HT29; assay type: cell-based, human; settings: Homo sapiens, HT-29, NCI 60-cell panel
Description: as §4

[13] = test system: LOX IMVI cells; assay: NCI-60 panel antiproliferation, LOX IMVI; assay type: cell-based, human; settings: Homo sapiens, NCI 60-cell panel
Description: as §4

[14] = test system: OVCAR-4 cells; assay: NCI-60 panel antiproliferation, OVCAR-4; assay type: cell-based, human; settings: Homo sapiens, NCI 60-cell panel
Description: as §4

[15] = test system: OVCAR-8 cells; assay: NCI-60 panel antiproliferation, OVCAR-8; assay type: cell-based, human; settings: Homo sapiens, NCI 60-cell panel
Description: as §4

[16] = test system: PC-3 cells; assay: NCI-60 panel antiproliferation, PC-3; assay type: cell-based, human; settings: Homo sapiens, NCI 60-cell panel
Description: as §4

[17] = test system: RXF-393 cells; assay: NCI-60 panel antiproliferation, RXF-393; assay type: cell-based, human; settings: Homo sapiens, NCI 60-cell panel
Description: as §4

[18] = test system: SF-268 cells; assay: NCI-60 panel antiproliferation, SF-268; assay type: cell-based, human; settings: Homo sapiens, NCI 60-cell panel
Description: as §4

[19] = test system: SF-295 cells; assay: NCI-60 panel antiproliferation, SF-295; assay type: cell-based, human; settings: Homo sapiens, NCI 60-cell panel
Description: as §4

[20] = test system: SK-Mel-2 cells; assay: NCI-60 panel antiproliferation, SK-MEL-2; assay type: cell-based, human; settings: Homo sapiens, NCI 60-cell panel
Description: as §4

[21] = test system: SR cells; assay: NCI-60 panel antiproliferation, SR; assay type: cell-based, human; settings: Homo sapiens, NCI 60-cell panel
Description: as §4

[22] = test system: 786-0 cells; assay: NCI-60 panel antiproliferation, 786-0; assay type: cell-based, human; settings: Homo sapiens, NCI 60-cell panel
Description: as §4

IC50 [1]: 28 nM
IC50 [2]: 21 nM
IC50 [3]: 12 nM
IC50 [4]: 6.4 nM
plasma concentration relative to IC50 against NCI-H460 [7]: below its IC50
SMILES: C=CC[C@H]1C[C@]2([C@H](C)Cc3cc(O)c(OC)cc3F)OCOC2=CC1=O (relative stereo) [Compound 4, 6-allyl-7a-(1-(2-fluoro-5-hydroxy-4-methoxyphenyl)propan-2-yl)-7,7a-dihydrobenzo[d][1,3]dioxol-5(6H)-one]
IC50 [5]: 7 nM
IC50 [6]: 7 nM

SMILES: C=CC[C@H]1C[C@]2([C@@H](C)Cc3ccc(OC)c(F)c3)OCOC2=CC1=O [Compound 37, (6S,7aR)-6-allyl-7a-((S)-1-(3-fluoro-4-methoxyphenyl)propan-2-yl)-7,7a-dihydrobenzo[d][1,3]dioxol-5(6H)-one]
IC50 [8]: 58 nM
IC50 [9]: 63 nM
IC50 [10]: 149 nM
IC50 [11]: 102 nM
IC50 [12]: 88 nM
IC50 [13]: 27 nM
IC50 [14]: 117 nM
IC50 [15]: 110 nM
IC50 [16]: 70 nM
IC50 [17]: 95 nM
IC50 [18]: 623 nM
IC50 [19]: 48 nM
IC50 [20]: 51 nM
IC50 [21]: 14 nM
IC50 [22]: 120 nM
